Each molecule was assayed against T1, α4β1 integrin (Homo sapiens, UniProt P05556+P13612) (assay: Inhibition of adhesion of calcein AM-labeled Ramos cells to CS1 (fibronectin) peptide-conjugated ovalbumin). Details: Table 1; Ramos cell adhesion to CS1-conjugated ovalbumin, 30 minutes at 37° C.
T1 construct: endogenous in cells; host or cells: Ramos cells
Type: cell-based
Description: The ability of compounds of the present invention to inhibit binding is determined by a procedure in which a 26-amino acid peptide containing the CS1 sequence of fibronectin with an N-terminal Cys ([…]) was coupled to maleimide activated ovalbumin. Bovine serum albumin (BSA) and CS1 conjugated ovalbumin were coated onto 96-well polystyrene plates at 0.5 mg/ml in TBS (50 mM Tris, pH 7.5; 150 mM NaCl) at 4° C. for 16 hours. The plates were washed three times with TBS and blocked with TBS containing 3% BSA at room temperature for 4 hours. Blocked plates were washed three times in binding buffer (TBS; 1 mM MgCl2; 1 mM CaCl2; 1 mM MnCl2) prior to assay. Ramos cells fluorescently labeled with calcein AM were resuspended in binding buffer (10^7 cells/ml) and diluted 1:2 with same buffer with or without compound. The cells were added immediately to the wells (2.5×10^5 cells/well) and incubated for 30 minutes at 37° C. Following three washes with binding buffer, adherent cells were lysed and quantitated using a fluorometer. IC50 is defined as the dose required to give 50% inhibition. MS in Table 3 stands for Mass Spec. nd stands for not determined in the Tables. A stands for inhibition in Table 2, and the percent inhibition indicates the inhibition of cell adhesion when compound is included in the assay at a concentration of 100 μM. The lower the IC50 value and the greater the percentage of inhibition, the more efficient the compound is at prevention of cell adhesion.

T1 sequence (P13612 34-1032): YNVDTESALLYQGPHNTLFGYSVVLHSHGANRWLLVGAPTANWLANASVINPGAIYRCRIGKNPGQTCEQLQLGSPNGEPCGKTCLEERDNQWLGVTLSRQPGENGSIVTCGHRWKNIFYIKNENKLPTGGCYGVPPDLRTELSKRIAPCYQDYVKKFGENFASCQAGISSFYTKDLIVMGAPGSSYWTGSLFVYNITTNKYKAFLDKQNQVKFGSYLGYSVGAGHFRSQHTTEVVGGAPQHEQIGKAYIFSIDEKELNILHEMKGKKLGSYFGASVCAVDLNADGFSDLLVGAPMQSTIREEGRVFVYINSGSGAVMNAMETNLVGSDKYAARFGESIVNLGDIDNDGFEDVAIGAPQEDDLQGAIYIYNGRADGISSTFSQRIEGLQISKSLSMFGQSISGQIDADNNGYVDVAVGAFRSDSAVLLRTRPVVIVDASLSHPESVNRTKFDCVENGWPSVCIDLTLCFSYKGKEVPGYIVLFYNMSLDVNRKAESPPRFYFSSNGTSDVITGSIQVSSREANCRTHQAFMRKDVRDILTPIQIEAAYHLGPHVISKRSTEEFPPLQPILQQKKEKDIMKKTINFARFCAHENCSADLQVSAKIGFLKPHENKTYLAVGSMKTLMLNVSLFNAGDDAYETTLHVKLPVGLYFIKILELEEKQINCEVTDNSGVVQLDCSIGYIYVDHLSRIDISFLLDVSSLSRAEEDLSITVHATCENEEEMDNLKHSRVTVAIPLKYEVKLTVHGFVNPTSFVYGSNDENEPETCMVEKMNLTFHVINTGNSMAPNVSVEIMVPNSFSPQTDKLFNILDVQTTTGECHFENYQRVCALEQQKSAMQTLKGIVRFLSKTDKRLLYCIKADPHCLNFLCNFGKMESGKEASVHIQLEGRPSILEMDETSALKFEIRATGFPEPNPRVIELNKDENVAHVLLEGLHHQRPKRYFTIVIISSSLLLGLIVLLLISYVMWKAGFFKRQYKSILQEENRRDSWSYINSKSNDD
T1 sequence (P05556 21-798): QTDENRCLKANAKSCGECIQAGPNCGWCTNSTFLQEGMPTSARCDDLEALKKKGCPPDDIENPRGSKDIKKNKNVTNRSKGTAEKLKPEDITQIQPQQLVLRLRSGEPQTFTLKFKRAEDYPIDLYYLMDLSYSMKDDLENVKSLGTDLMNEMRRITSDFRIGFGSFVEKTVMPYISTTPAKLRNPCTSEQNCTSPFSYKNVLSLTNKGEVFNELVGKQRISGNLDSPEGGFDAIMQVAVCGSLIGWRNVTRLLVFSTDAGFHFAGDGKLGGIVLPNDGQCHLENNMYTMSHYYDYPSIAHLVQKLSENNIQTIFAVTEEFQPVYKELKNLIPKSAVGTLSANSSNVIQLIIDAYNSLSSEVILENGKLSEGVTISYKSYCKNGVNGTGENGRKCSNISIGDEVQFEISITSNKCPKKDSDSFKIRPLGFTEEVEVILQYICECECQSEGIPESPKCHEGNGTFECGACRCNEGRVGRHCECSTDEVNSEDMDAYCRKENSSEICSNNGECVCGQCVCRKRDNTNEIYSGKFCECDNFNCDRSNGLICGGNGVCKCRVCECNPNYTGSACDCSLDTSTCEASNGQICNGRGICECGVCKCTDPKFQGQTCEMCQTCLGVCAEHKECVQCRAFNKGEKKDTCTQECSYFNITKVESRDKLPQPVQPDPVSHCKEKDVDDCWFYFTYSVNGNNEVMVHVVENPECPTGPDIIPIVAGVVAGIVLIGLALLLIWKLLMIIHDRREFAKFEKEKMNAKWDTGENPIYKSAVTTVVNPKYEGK

Structure (SMILES) | IC50 [nM]
CCCCC(C(=O)N[C@@H](CC(=O)O)c1ccc(C)cc1)n1cc(C)cc(Cc2ccccc2)c1=O (mixture of isomers) [Compound 13, (3S)-3-((2R,S)-2-(3-benzyl-5-methyl-2-oxo-1(2H)-pyridinyl)hexanoylamino)-3-(4-methylphenyl)propanoic acid] | 70

Same assay, conditions: Table 3; Ramos cell adhesion to CS1-conjugated ovalbumin, 30 minutes at 37° C.

Structure (SMILES) | IC50 [nM]
CCC(C(=O)N[C@@H](CC(=O)O)c1ccc2c(c1)OCO2)n1cccc(Cc2ccccc2)c1=O (stereo partly drawn) [(3S)-3-(1,3-benzodioxol-5-yl)-3-({2-[2-oxo-3-(phenylmethyl)-1(2H)-pyridinyl]butanoyl}amino)propanoic acid] | 30
O=C(O)C[C@H](NC(=O)Cn1cccc(Cc2ccccc2)c1=O)c1ccc2c(c1)OCO2 [(3S)-3-(1,3-benzodioxol-5-yl)-3-({2-[2-oxo-3-(phenylmethyl)-1(2H)-pyridinyl]acetyl}amino)propanoic acid] | 450
CCCCC(C(=O)N[C@@H](CC(=O)O)c1ccc2c(c1)OCO2)n1cc(C)cc(Cc2ccccc2Cl)c1=O (stereo partly drawn) [(3S)-3-(1,3-benzodioxol-5-yl)-3-({2-[3-[(2-chlorophenyl)methyl]-5-methyl-2-oxo-1(2H)-pyridinyl]hexanoyl}amino)propanoic acid] | 10
O=C(O)C[C@H](NC(=O)Cn1c(=O)n(Cc2ccccc2)c2ccccc21)c1ccc2c(c1)OCO2 [(3S)-3-(1,3-benzodioxol-5-yl)-3-({2-[2-oxo-3-(phenylmethyl)-2,3-dihydro-1H-benzimidazol-1-yl]acetyl}amino)propanoic acid] | 200
CCCC[C@@H](C(=O)N[C@@H](CC(=O)O)c1ccc2c(c1)OCO2)n1cccc(Cc2ccccc2)c1=O [(3S)-3-(1,3-benzodioxol-5-yl)-3-({(2S)-2-[2-oxo-3-(phenylmethyl)-1(2H)-pyridinyl]hexanoyl}amino)propanoic acid] | 4
O=C(O)C[C@H](NC(=O)Cc1cccc(Oc2ccccc2)c1)c1ccc2c(c1)OCO2 [(3S)-3-(1,3-benzodioxol-5-yl)-3-({2-[3-(phenyloxy)phenyl]acetyl}amimo)-propanoic acid] | > 100000

Same assay, conditions: Table 4; Ramos cell adhesion to CS1-conjugated ovalbumin, 30 minutes at 37° C.

Structure (SMILES) | IC50 [nM]
CCCCOc1cccc([C@H](CC(=O)O)NC(=O)C(CCCC)n2cc(C)cc(Cc3ccccc3)c2=O)c1 (stereo partly drawn) [(3S)-3-{[2-(3-benzyl-5-methyl-2-oxopyridin-1(2H)-yl)hexanoyl]amino}-3-(3-butoxyphenyl)propanoic acid] | 45
CCCCC(C(=O)N[C@@H](CC(=O)O)c1ccc(OC)c(C)c1C)n1cccc(Cc2ccccc2)c1=O (stereo partly drawn) [(3S)-3-{[2-(3-benzyl-2-oxopyridin-1(2H)-yl)hexanoyl]amino}-3-(4-methoxy-2,3-dimethylphenyl)propanoic acid] | 300
CCCCC(C(=O)N[C@H](Cc1ccccc1)C(=O)O)n1cc(C)cc(Cc2ccccc2)c1=O (stereo partly drawn) [(2R)-2-({2-[5-methyl-2-oxo-3-(phenylmethyl)-1(2H)-pyridinyl]hexanoyl}amino)-3-phenylpropanoic acid] | 5000
CCCCC(C(=O)N[C@@H](CC(=O)O)c1cccc(C(F)(F)F)c1)n1cc(C)cc(Cc2ccccc2)c1=O (stereo partly drawn) [(3S)-3-{[2-(3-benzyl-5-methyl-2-oxopyridin-1(2H)-yl)hexanoyl]amino}-3-[3-(trifluoromethyl)phenyl]propanoic acid] | 250
CCCCC(C(=O)N[C@@H](CC(=O)O)c1ccc(C)cc1)n1cc(C)cc(Cc2ccc3ccccc3c2)c1=O (stereo partly drawn) [(3S)-3-({2-[5-methyl-3-(2-naphthalenylmethyl)-2-oxo-1(2H)-pyridinyl]hexanoyl}amino)-3-(4-methylphenyl)propanoic acid] | 400
CCCCC(C(=O)N[C@@H](CC(=O)O)c1ccc(-c2ccc(C)cc2)cc1)n1cc(C)cc(Cc2ccccc2)c1=O (stereo partly drawn) [(3S)-3-{[2-(3-benzyl-5-methyl-2-oxopyridin-1(2H)-yl)hexanoyl]amino}-3-(4′-methyl-1,1′-biphenyl-4-yl)propanoic acid] | 250
CCCCC(C(=O)N[C@@H](Cc1ccccc1)C(=O)O)n1cc(C)cc(Cc2ccccc2)c1=O (stereo partly drawn) [(2S)-2-({2-[5-methyl-2-oxo-3-phenylmethyl)-1(2H)-pyridinyl]hexanoyl}amino)-3-phenylpropanoic acid] | > 10000
CCCC[C@@H](C(=O)N[C@@H](CC(=O)O)c1ccc(-c2c(OC)cccc2OC)cc1)n1cc(C)cc(Cc2ccccc2)c1=O [(3S)-3-{[(2S)-2-(3-benzyl-5-methyl-2-oxopyridin-1(2H)-yl)hexanoyl]amino}-3-(2′,6′-dimethoxy-1,1′-biphenyl-4-yl)propanoic acid] | 200
CCCCC(C(=O)N[C@@H](CC(=O)O)c1cc(C)c(OC)c(C)c1)n1cc(C)cc(Cc2ccccc2)c1=O (stereo partly drawn) [(3S)-3-{[2-(3-benzyl-5-methyl-2-oxopyridin-1(2H)-yl)hexanoyl]amino}-3-(4-methoxy-3,5-dimethylphenyl)propanoic acid] | 140

Second part, the molecule after the results:

IC50 [nM] | Structure (SMILES)
25 | CCCCC(C(=O)N[C@@H](CC(=O)O)c1ccccc1)n1cc(C)cc(Cc2ccccc2C)c1=O (stereo partly drawn) [(3S)-3-({2-[5-methyl-3-[(2-methylphenyl)methyl]-2-oxo-1(2H)-pyridinyl]hexanoyl}amino)-3-phenylpropanoic acid]
4 | CCCCC(C(=O)N[C@@H](CC(=O)O)c1cccc(OC(C)C)c1)n1cc(C)cc(Cc2ccccc2OC)c1=O (stereo partly drawn) [(3S)-3-(3-isopropoxyphenyl)-3-({2-[3-(2-methoxybenzyl)-5-methyl-2-oxopyridin-1(2H)-yl]hexanoyl}amino)propanoic acid]
4 | CCCCC(C(=O)N[C@@H](CC(=O)O)c1ccc(OC)c(OCC)c1)n1cc(C)cc(Cc2ccccc2)c1=O (stereo partly drawn) [(3S)-3-{[2-(3-benzyl-5-methyl-2-oxopyridin-1(2H)-yl)hexanoyl]amino}-3-(3-ethoxy-4-methoxyphenyl)propanoic acid]
5 | CCCCC(C(=O)N[C@@H](CC(=O)O)c1cccc(OC(C)C)c1)n1cc(C)cc(Cc2ccccc2Cl)c1=O (stereo partly drawn) [(3S)-3-({2-[3-(2-chlorobenzyl)-5-methyl-2-oxopyridin-1(2H)-yl]hexanoyl}amino)-3-(3-isopropoxyphenyl)propanoic acid]
12 | CCCCC(C(=O)N[C@@H](CC(=O)O)c1ccccc1)n1cc(C)cc(Cc2ccccc2Cl)c1=O (stereo partly drawn) [(3S)-3-({2-[3-(2-chlorobenzyl)-5-methyl-2-oxopyridin-1(2H)-yl]hexanoyl}amino)-3-phenylpropanoic acid]
17 | CCCCC(C(=O)N[C@@H](CC(=O)O)c1cccc(OC(C)C)c1)n1cc(C)cc(Cc2ccc(F)cc2Cl)c1=O (stereo partly drawn) [(3S)-3-({2-[3-[(2-chloro-4-fluorophenyl)methyl]-5-methyl-2-oxo-1(2H)-pyridinyl]hexanoyl}amino)-3-{3-[(1-methylethyl)oxy]phenyl}propanoic acid]
27 | CCCCC(C(=O)N[C@@H](CC(=O)O)c1ccc(OC(F)(F)F)cc1)n1cc(C)cc(Cc2ccccc2)c1=O (stereo partly drawn) [(3S)-3-{[2-(3-benzyl-5-methyl-2-oxopyridin-1(2H)-yl)hexanoyl]amino}-3-[4-(trifluoromethoxy)phenyl]propanoic acid]
20 | CCCCC(C(=O)N[C@@H](CC(=O)O)c1cccc(C(F)F)c1)n1cc(C)cc(Cc2ccccc2)c1=O (stereo partly drawn) [(3S)-3-[3-(difluoromethyl)phenyl]-3-({2-[5-methyl-2-oxo-3-(phenylmethyl)-1(2H)-pyridinyl]hexanoyl}amino)propanoic acid]
20 | CCCCC(C(=O)N[C@@H](CC(=O)O)c1cccc(OC(C)C)c1)n1cc(C)cc(Cc2cccc(Cl)c2)c1=O (stereo partly drawn) [(3S)-3-({2-[3-(3-chlorobenzyl)-5-methyl-2-oxopyridin-1(2H)-yl]hexanoyl}amino)-3-(3-isopropoxyphenyl)propanoic acid]
10 | CCCCC(C(=O)N[C@@H](CC(=O)O)c1ccccc1)n1cc(C)cc(Cc2ccccc2)c1=O (stereo partly drawn) [(3S)-3-{[2-(3-benzyl-5-methyl-2-oxopyridin-1(2H)-yl)hexanoyl]amino}-3-phenylpropanoic acid]
17 | CCCC[C@@H](C(=O)N[C@@H](CC(=O)O)c1ccc(OC)c(F)c1)n1cc(C)cc(Cc2ccccc2)c1=O [(3S)-3-{[(2S)-2-(3-benzyl-5-methyl-2-oxopyridin-1(2H)-yl)hexanoyl]amino}-3-(3-fluoro-4-methoxyphenyl)propanoic acid]
10 | CCCCC(C(=O)N[C@@H](CC(=O)O)c1ccc2ccn(C)c2c1)n1cc(C)cc(Cc2ccccc2)c1=O (stereo partly drawn) [(3S)-3-(1-methyl-1H-indol-6-yl)-3-({2-[5-methyl-2-oxo-3-(phenylmethyl)-1(2H)-pyridinyl]hexanoyl}amino)propanoic acid]
4 | CCCCC(C(=O)N[C@@H](CC(=O)O)c1cccc(OC(C)C)c1)n1cc(C)cc(Cc2ccccc2)c1=O (stereo partly drawn) [(3S)-3-{[2-(3-benzyl-5-methyl-2-oxopyridin-1(2H)-yl)hexanoyl]amino}-3-(3-isopropoxyphenyl)propanoic acid]
40 | CCCCC(C(=O)N[C@@H](CC(=O)O)c1ccc(CC)cc1)n1cc(C)cc(Cc2ccccc2)c1=O (stereo partly drawn) [(3S)-3-(4-ethylphenyl)-3-({2-[5-methyl-2-oxo-3-(phenylmethyl)-1(2H)-pyridinyl]hexanoyl}amino)propanoic acid]

Reference: patent US20030199692A1, “Propanoic acid derivatives that inhibit the binding of integrins to their receptors” (priority 1999, published 2003)
